Assay results from US20260234150A1, “COMPOUND FOR INHIBITING NLRP3, PREPARATION METHOD, AND USE” (DOVETREE MEDICINES UNUS, INC., priority 2023, published 2026).
pIC50: −log10 of the molar value.

Columns and labels:
[1] = target: T1, His6-Flag-TEV-NLRP3 (134-1036) (Homo sapiens, UniProt Q96P20); assay: NLRP3 fluorescence polarization (FP) binding assay, competition with probe NP3-301; conditions: competition with NP3-301 for binding to NLRP3 (134-1036), 30 nM protein
T1 construct: fused on or other part: N-terminal His6 tag, Flag tag and TEV cleavage site
T1 sequence (Q96P20 134-1036 limits assumed): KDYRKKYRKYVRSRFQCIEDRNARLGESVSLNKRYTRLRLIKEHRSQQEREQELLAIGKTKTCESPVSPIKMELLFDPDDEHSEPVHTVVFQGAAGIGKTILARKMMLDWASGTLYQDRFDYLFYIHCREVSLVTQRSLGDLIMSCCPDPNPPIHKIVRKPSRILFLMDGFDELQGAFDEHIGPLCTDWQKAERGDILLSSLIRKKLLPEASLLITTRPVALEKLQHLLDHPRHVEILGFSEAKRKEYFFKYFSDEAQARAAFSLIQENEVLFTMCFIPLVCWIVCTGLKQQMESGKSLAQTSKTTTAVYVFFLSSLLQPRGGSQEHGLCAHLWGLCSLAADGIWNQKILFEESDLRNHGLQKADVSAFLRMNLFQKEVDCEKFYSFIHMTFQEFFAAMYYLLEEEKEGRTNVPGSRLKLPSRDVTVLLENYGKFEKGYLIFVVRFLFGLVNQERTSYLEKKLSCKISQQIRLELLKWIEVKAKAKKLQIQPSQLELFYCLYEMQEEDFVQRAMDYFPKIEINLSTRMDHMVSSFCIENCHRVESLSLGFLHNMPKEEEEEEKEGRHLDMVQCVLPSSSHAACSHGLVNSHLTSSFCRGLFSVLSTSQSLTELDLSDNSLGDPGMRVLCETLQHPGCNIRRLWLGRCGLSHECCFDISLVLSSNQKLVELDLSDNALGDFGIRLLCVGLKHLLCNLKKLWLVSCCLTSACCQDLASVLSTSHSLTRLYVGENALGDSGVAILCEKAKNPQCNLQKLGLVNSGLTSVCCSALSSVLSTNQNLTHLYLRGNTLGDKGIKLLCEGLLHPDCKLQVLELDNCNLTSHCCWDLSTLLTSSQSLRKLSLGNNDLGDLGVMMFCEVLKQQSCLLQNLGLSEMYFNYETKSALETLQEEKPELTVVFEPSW
Outline: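 Compound was preincubated 60 min at room temperature with NLRP3 protein (30 nM final) in 50 mM Hepes pH 7.4, 150 mM NaCl, 2.5 mM MgCl2, 1 mM TCEP, 100 μM ATP. Probe NP3-301 (0.5 nM final) was then added for 30 min. Fluorescence polarization was read at ex 485/em 535 nm, and IC50 was obtained by four-parameter logistic fit.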

[2] = Liver microsome metabolic stability, human; format: in vitro ADME; conditions: human liver microsomes, 45 min incubation
Method: Purpose: This experiment investigates the metabolic stability of the compound in liver microsomes of different species such as humans, mice and rats, and the residual content of the test compound after incubation with liver microsomes of different species such as humans, mice and rats.
Preparation of 500 μM solution of target compound and positive control: 5 μL of each 10 mM stock solution was taken, added to 95 μL acetonitrile, and mixed for 30 s;
Preparation of 6 mM NADPH solution: 100 mM Stock aliquot liquid was diluted with Mg-Mg —K-Buffer.
2.1.1 Liver microsome solution: 18.75 μL of 20 mg/mL HLM, RLM, MLM, DLM, MOLM (final concentration: 0.5 mg/ml) were taken and placed them in each well of a 96-well plate;
2.1.2 1.5 μL of 500 μM solution of each compound was added respectively;
2.1.3 479.8 μL of phosphate buffer was taken, then added to each compound well, and mixed at 1000 rpm in an oscillating mixer for 10 s.
30 μL of the above samples were taken and aliquoted to a new 96-well plates respectively (including NADPH group, n=2, and no NADPH group at 0 and 45 min, n=1), marked as 0, 5, 15, 30 and 45 min; […]
The slope was calculated based on the LN value of the compound concentration percentage and time as the coordinate axis, and the residual content of the compound after incubation with liver microsomes was calculated based on the slope and formula. […]

[3] = system: iodoacetic acid (MIA)-induced SD rat knee osteoarthritis model; assay: Iodoacetic acid (MIA)-induced SD rat knee osteoarthritis model; format: in vivo, SD rats; conditions: 30 mg/kg orally once a day from Day 7 to Day 42; compared with model blank control group; 21 days to 42 days after modeling
Method: Purpose: Evaluate the efficacy of MCC950 (Positive reference compound) and compound 111 of the present disclosure on iodoacetic acid (MIA)-induced SD rat knee osteoarthritis model.
Experimental materials: Experimental male SD rats, 4 weeks old.
Model induction began after the experimental animals were adapted to the animal environment for 7 days. Day 0, the rats were anesthetized, the hair around the left knee joint was removed, and the skin was disinfected. The left leg was flexed 90° to expose the patellar platform. The depression in the middle of the platform was touched by hand to find the femoral condyle, patella and ligament. The syringe needle was inserted from the bottom of the patella on both sides of the patellar ligament to the direction of the femoral condyle. When a clear sense of empty space was felt, 50 μL of iodoacetic acid solution was injected. Day 7 Grouping was performed according to the width of the knee joint on the induced side. The groups were: normal control group (healthy control without modeling, 5% DMSO+10% Solutol+85% Saline), model blank control group (5% DMSO+10% Solutol+85% Saline), MCC950 30 mg/kg, and compound 111 of the present disclosure 30 mg/kg. Starting from Day 7, the normal control group and the model blank control group were given the solvent (5% DMSO+10% Solutol+85% Saline) orally once a day, and the other groups were given the corresponding compounds orally once a day until the end of the administration on Day 42. The knee joint width and body weight of the rats were measured once on Day 7, 14, 21, 28, 35, and 42.

pIC50 [1]: ≥ 7.00
LMS (h)(% rem, 45 min) [2]: 93.24 % rem
SMILES: CC(=O)N1CCOC[C@H]1CNc1nc2nc(-c3c(C)cc(C(F)(F)F)cc3O)ccc2o1 [Compound 111]
widening of the knee joints (knee joint width) [3]: could significantly inhibit the widening of the knee joints
